According to US20240000084A1, “ANTI[…], ANTIBACTERIAL AGENT, ANTIVIRAL AGENT, PATHOGEN DISPOSAL DEVICE, ANTI[…] PRODUCTION METHOD, ANTIBACTERIAL TREATMENT METHOD, VIRUS INACTIVATION METHOD, AND PATHOGEN DISPOSAL METHOD” (ACENET INC., priority 2020, published 2024):
Read-outs that look alike come from different tables or passages of the source.

Tests used:
[1] = tested on: bacteria A (any one of Staphylococcus aureus, Escherichia coli MV1184, Streptococcus pyogenes, Streptcoccus mutans, Porphyromonas gingivalis, Treponema …); experiment: Bactericidal action on bacteria A-containing material (Experimental Example 1); assay type: cell-based; settings: chlorine dioxide generated by bringing ozone gas into contact with a radical source; cultured after contact
[2] = Lewis acidity measuring method (1): reaction rate constant of reaction between CoTPP and oxygen in the presence of a Lewis acid; assay type: physicochemical
Source text: Chem. Soc. […] Specifically, the Lewis acidity can be measured by the following “Lewis acidity measuring method (1)”, which is herein incorporated by reference.
As to acetonitrile (MeCN) that contains cobalt tetraphenylporphyrin, saturated O2, and an object whose Lewis acidity is to be measured (e.g., a cation of a metal or the like, represented by M^n+ in the following chemical reaction formula (1a)) in the following chemical reaction formula (1a), the change of the ultraviolet-visible absorption spectrum is measured at room temperature. On the basis of the obtained reaction rate constant (kcat), the ΔE value (eV), which is an indicator of the Lewis acidity, can be calculated. The higher the kcat, the stronger the Lewis acidity. Furthermore, the Lewis acidity of an organic compound can be estimated from the energy level of the lowest unoccupied molecular orbital (LUMO) calculated by the quantum chemical calculation. The higher the value at the positive side, the stronger the Lewis acidity.
In the following table, the numerical value expressed in the unit “kcat, M^−2s^−1” is a reaction rate constant of a reaction between CoTPP and oxygen in the presence of a Lewis acid. The numerical value expressed in the unit “LUMO, eV” is the energy level of LUMO.

Row | Molecule | kcat, reaction rate constant of reaction between CoTPP and oxygen in the presence of a Lewis acid [2] [M^−2 s^−1] | other results
1 | [O][Cl+][O-] [chlorine dioxide] |  | bactericidal effect on bacteria A [1]: exhibits a bactericidal effect
2 | CC(C)(C)CC(C)(C)c1ccc(OCCOCC[N+](C)(C)Cc2ccccc2)cc1.[Cl-] [benzethonium chloride] | 0.24 | 
3 | benzalkonium chloride |  | kcat, reaction rate constant of reaction between CoTPP and oxygen in the presence of a Lewis acid ([2]; acetonitrile, saturated O2, room temperature): 0.18 M^−2 s^−1
4 | CCCC[N+](CCCC)(CCCC)CCCC.F[P-](F)(F)(F)(F)F [tetrabutylammonium hexafluorophosphate] | >0.1 | 
